# From patent US7763612B2, “Therapeutic amine-arylsulfonamide conjugate compounds” (Algebra, Inc., priority 2006, dated 2010)
# Like-named read-outs stand apart in the source and are kept apart here.
# Tests used:
# [1] = system: tetrabenazine-induced behavioral effects; assay: Antitetrabenazine activity in the mouse (prevention of tetrabenazine-induced behavioral effects); type: in vivo; settings: for ED50: Mus musculus, ip, read-out: ED50 (mg/kg i.p.), antitetrabenazine activity
# Excerpt: Substances having an antidepressant action antagonize a number of the behavioral effects induced by tetrabenazine including locomotor activity, ptosis and hypothermia. Tetrabenazine-induced behavioral effects can be quantified using a composite index, X, where X=(1−ptosis score)/(activity score*[Temp., treated/Temp., control]) as described by Cooper, B. R., J. L. Howard, and F. E. Soroko, Animal models used in prediction of antidepressant effects in man, Journal of Clinical Psychiatry 44:63-6, 1983). 50% effective dose (ED50) values indicate a dose of compound with ‘antitetrabenazine activity’ at which the composite index, X, induced by 20 mg/kg of tetrabenazine intraperitoneally is reduced 50%.
# Prevention of tetrabenazine-induced behavioral effects were measured using a modification of the method of Vernier et al., First Hahnemann Symposium on Psychosomatic Medicine, ed. Nodim and Moyer, pub Lea and Febiger, Philadelphia 1962 as described previously (Cooper, B. R., J. L. Howard, and F. E. Soroko, Animal models used in prediction of antidepressant effects in man, Journal of Clinical Psychiatry 44:63-6, 1983). Mice, groups of 12 CD1 males each, were injected intraperitoneally (i.p.) with the compounds (1420), (20a) and furosemide (10) suspended in a 0.5% 4000-centipoise methyl cellulose solution at 3 mg/mL or vehicle. All injections were administered at a vehicle volume of 10 ml/kg. The 50% effective dose (ED50) of each compound was determined by linear regression analysis of log probit plots of dose effect curves and is reported in Table 3: […]
# Mice, CD1 males = assay: Safety and toxicity dose-ranging study, observation for seizures and deaths after oral administration; type: in vivo, mouse; settings: CD1 male mice, p.o., doses up to 300 mg/kg, observed for one hour
# Experimental: Safety and Toxicity: Dose-ranging studies were performed to determine the range of safe doses for compound (1420). […] Mice, groups of 6 CD1 males each, were administered compound suspended in a 0.5% 4000-centipoise methyl cellulose vehicle at a volume of 10 mL/kg p.o. using a 22-gauge stainless steel mouse feeding tube and 1-mL syringe at doses up to 300 mg/kg.
# [2] = CD1 male mice, i.p., dose at which composite index X induced by 20 mg/kg tetrabenazine i.p. is reduced 50%
Compound,"inhibition of tetrabenazine-induced behavioral effects ([1]; CD1 male mice, i.p.)",ED50 [1] [mg/kg],"ED50 [1, 2] [mg/kg]","serious adverse events (seizures and deaths) (Mice, CD1 males)"
"C[C@@H]1CO[C@@](O)(c2cc(F)cc(F)c2)[C@H](C)N1 [20a, (2S,3S,5R)-2-(3,5-difluorophenyl)-2-hydroxy-3,5-dimethylmorpholine]",inhibited tetrabenazine-induced behavioral effects,0.2,,
"C[C@@H]1CO[C@@](O)(c2cc(F)cc(F)c2)[C@H](C)N1C(=O)OCOC(=O)c1cc(S(N)(=O)=O)c(Cl)cc1NCc1ccco1 [compound 1420, (2S,3S,5R)-4-[5-(aminosulfonyl)-4-chloro-2-[(2-furanylmethyl)amino]benzoyloxymethoxycarbonyl]-2-(3,5-difluorophenyl)-3,5-dimethyl-2-morpholinol]",inhibited tetrabenazine-induced behavioral effects,,3.6,No seizures or deaths were observed in any animals at any dose
"NS(=O)(=O)c1cc(C(=O)O)c(NCc2ccco2)cc1Cl [furosemide, 5-(aminosulfonyl)-4-chloro-2-[(2-furanylmethyl)amino]benzoic acid]",,,> 30,
